Data published in publication PMC6093661, “Vitamin E hydroquinone is an endogenous regulator of ferroptosis via redox control of 15-lipoxygenase” (PLoS ONE, 2018).

Assays:
Q7 cells [1] = assay: Cellular lipid oxidation assay (BODIPY 581/591 C11, RSL3-treated Q7 cells); type: cell-based, mouse; settings: RSL3 2 μM, 6-point titration, time-lapse microscopy
Protocol: Ferroptosis was induced by RSL3 (2 μM final concentration) in Q7 cells as described above. The protective activity of co-treated compounds was assessed also as described above. The rate of cellular lipid oxidation after GPX4 inhibition was assessed by monitoring the time-dependent changes in green fluorescence of cells pre-labeled with BODIPY™ 581/591 C11 dye (5 μM, 30-minute labeling period; Thermo Fisher/Invitrogen) using the IncuCyte S3 live-cell imaging apparatus (Sartorius) using a 10x objective. Cells (three images per field; at least three replicate wells per condition) were imaged once hourly for up to 18 hours after compound and RSL3 addition. Quantification of cell images was performed using the IncuCyte Zoom software using the Basic Analyzer tool which utilized an algorithm that calculated the total green-positive area per well where “green-positive” was defined as 1.45 times the local background-subtracted fluorescent signal. After a 2-3-hour lag period post-RSL3 treatment, the cellular green fluorescence signal began increasing. The rate of change in total green-positive area per well from 3–9 hours post-compound treatment was calculated, then expressed relative to that observed in the RSL3-only control treatment group, which was defined as 100%.

[2] = biological target: T1, Rabbit 15-lipoxygenase (rLOX15) (Oryctolagus cuniculus, UniProt P12530); assay: Lipoxygenase enzyme inhibition assay; type: biochemical; settings: rabbit 15-LO
T1 construct: purchased Enzo Life Sciences, Inc. BML-PL015
T1 sequence (P12530 1-663): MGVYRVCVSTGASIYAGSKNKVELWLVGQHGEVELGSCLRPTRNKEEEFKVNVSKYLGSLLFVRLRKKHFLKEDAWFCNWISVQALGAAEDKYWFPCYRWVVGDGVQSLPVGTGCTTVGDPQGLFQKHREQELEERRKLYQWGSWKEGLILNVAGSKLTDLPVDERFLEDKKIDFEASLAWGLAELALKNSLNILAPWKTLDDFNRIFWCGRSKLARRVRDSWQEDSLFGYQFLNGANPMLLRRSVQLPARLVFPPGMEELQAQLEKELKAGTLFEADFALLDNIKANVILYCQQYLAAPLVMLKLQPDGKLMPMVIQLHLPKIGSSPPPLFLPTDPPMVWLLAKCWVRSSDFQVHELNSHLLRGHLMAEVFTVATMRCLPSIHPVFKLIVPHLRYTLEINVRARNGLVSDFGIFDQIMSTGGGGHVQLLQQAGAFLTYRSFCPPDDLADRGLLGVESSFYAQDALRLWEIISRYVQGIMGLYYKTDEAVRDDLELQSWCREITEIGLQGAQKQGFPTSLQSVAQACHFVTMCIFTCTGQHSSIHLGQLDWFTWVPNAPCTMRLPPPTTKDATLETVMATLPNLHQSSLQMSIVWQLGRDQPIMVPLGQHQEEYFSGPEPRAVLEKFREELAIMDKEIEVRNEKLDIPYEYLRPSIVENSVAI
Protocol: Rabbit 15-lipoxygenase (rLOX15, part number BML-PL015, lot number 3-P9009a) was obtained from Enzo Life Sciences, Inc. Sodium cholate (part number C6445, lot number 094K0209) was obtained from Sigma-Aldrich.
Stock solutions of test compounds were prepared in DMSO and then diluted to final assay concentrations in cholate mix such that final cholate and DMSO concentrations were maintained at 0.2%.

[3] = ORAC (oxygen radical absorbance capacity) assay; settings: average of 25 and 12.5 μM compound; mean, SEM, n = 6
Protocol: ORAC assay kits were purchased from Cell Biolabs. Assays were performed per the manufacturer’s instructions for lipophilic samples with minor modifications. DMSO stock solutions of compounds were diluted in an anaerobic glovebox to final concentrations of 25 and 12.5 μM in triplicate. A standard curve of Trolox® between 0–100 μM in triplicate per concentration was also generated on each assay plate. Diluted compounds and standards were removed from the glovebox and reactions initiated by addition of aerobic fluorescein reagent and radical initiator. Fluorescein fluorescence was monitored at excitation wavelength of 480 nm and emission wavelength of 520 nm every minute for one hour. AUC analysis was performed as described in the kit protocol. The “Trolox equivalents” at each concentration of test compound were calculated and the average Trolox equivalents at the two compound concentrations are presented. The errors were determined by propagating errors from the SEMs of the triplicate determinations to the averages across the two triplicate determinations.

[4] = Radical-trapping antioxidant (RTA) activity assay in DOPC liposomes; settings: 50 μM compound, 2 mol% in DOPC liposomes, BODIPY 581/591 C11 quenching; liposome-only control = 1
[5] = biological target: T2, Soybean 15-lipoxygenase (SLO) (Glycine max, UniProt P08170); assay: EPR spectroscopy of lipoxygenase active-site iron redox state; type: biochemical; settings: SLO oxidised with lipid-OOH set to 100% Fe3+; addition of compound
T2 construct: purchased Cayman Chemical 60700
T2 sequence (P08170 1-839): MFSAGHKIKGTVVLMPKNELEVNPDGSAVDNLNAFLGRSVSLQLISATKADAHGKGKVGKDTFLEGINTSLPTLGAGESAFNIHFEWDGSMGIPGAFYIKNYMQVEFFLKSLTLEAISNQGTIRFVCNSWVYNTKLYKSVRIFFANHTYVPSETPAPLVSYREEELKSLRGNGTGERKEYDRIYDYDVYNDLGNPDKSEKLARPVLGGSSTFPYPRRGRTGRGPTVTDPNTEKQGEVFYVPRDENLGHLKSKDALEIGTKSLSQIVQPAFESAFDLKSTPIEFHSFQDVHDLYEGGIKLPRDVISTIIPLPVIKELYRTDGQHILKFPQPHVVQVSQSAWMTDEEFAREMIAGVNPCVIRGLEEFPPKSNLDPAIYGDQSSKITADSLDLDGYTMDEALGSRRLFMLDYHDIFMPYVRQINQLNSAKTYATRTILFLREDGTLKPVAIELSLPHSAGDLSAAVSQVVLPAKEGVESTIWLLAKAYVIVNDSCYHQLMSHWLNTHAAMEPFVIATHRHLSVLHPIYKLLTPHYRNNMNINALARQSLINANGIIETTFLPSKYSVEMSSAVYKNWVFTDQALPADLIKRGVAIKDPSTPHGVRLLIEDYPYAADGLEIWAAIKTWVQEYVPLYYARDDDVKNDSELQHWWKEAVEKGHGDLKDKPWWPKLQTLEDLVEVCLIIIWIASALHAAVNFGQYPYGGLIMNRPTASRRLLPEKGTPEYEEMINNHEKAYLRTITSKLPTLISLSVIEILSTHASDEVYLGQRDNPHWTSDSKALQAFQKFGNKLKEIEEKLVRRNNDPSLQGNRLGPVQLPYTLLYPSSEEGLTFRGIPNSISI
Protocol: Lipoxygenase: Soybean 15-lipoxygenase (SLO) was buffer exchanged into 50 mM borate buffer, pH 9.0 containing 10% (v/v) glycerol. The resulting protein solution was concentrated to approximately 100 μM, based upon the supplier’s activity per mL and specific activity per mg. The active-site iron oxidation state was further evaluated by EPR under three treatment conditions: 1) No treatment, 2) oxidation with 3-fold molar excess of lipid hydroperoxide (final concentration of 300 μM) from an ethanol stock, 3) oxidation with 3-fold molar excess of lipid hydroperoxide followed by 10-fold molar excess of αTHQ or αT3HQ (final concentration of 1 mM) from a DMSO stock. All samples contained the same final concentrations of ethanol and DMSO as sample 3. The EPR spectra of buffer alone were also evaluated to allow for baseline subtraction.
CW-EPR spectra were recorded at 150 K on a Bruker ELEXYS E540 spectrometer fitted with an X-band microwave bridge, a Super High Sensitivity Resonator (SHQ), and a Nitrogen VT apparatus. The spectra were recorded at 9.43 GHz with 1.002 mW microwave power, 10 G modulation amplitude, 100 kHz modulation frequency, 25 scans.

[6] = tested on: Mouse striatal Q7 cells (STHdhQ7/Q7); assay: RSL3 ferroptosis cell rescue (cellular survival assay, CellTiter-Glo)
Q7 cells [7] = assay: Intracellular quantification of αT, αTQ and αTHQ in Q7 cells (LC-MS/MS, succinate capping); settings: all cases tested (basal, αT- or αTQ-supplemented)

Compound: Cc1c(C)c(O)c(CC[C@](C)(O)CCC[C@H](C)CCC[C@H](C)CCCC(C)C)c(C)c1O [αTHQ, α-tocopherol hydroquinone]
- effect on RSL3-induced lipid oxidation (BODIPY 581/591 C11 oxidation) (Q7 cells [1]): prevented
- 15-LO inhibitory potency fold compared with αTQ, αT, or αTCC [2]: > 40 fold
- IC50 ([2]; 50 μM arachidonic acid substrate): 2450 nM
- activity at 100 µM ([2]; compound 100 μM, read-out: 15-Lipoxygenase Enzyme Assay % activity at 100 μM): 15%
- ORAC Antioxidant Activity Assay Trolox Equiv. [3]: 0.106 Trolox Equiv.
- Radical Trapping Assay AUC (Rel. Control) [4]: 1.855
- decrease in the SLO-Fe3+ signal [5]: 50%
- EC50 ([6]; Mus musculus, 18 h, read-out: RSL3 Ferroptosis Cell Assay Average EC50, Q7 cells, RSL3 2 μM, 18 h co-treatment, CellTiter-Glo 2.0): 90 ± 30 nM
- fold more potent than αT in preventing ferroptotic cell death ([6]; Q7 cells, RSL3, EC50 ratio vs αT): 57 fold
- cellular αTHQ exposures exceed those of αTQ (Q7 cells [7]): 3- to 4 fold
